Reference: US20220396577A1, “NOVEL SUBSTITUTED 1,3-8-TRIAZASPIRO[4,5] DECANE-2,4-DIONE COMPOUNDS AS INDOLEAMINE 2,3-DIOXYGENASE (IDO) AND/OR TRYPTOPHAN 2,3-DIOXYGENASE (TDO) INHIBITORS” (Merck Sharp & Dohme LLC, priority 2019, published 2022)

Legend:
IDO1 = IDO1 (Homo sapiens, UniProt P14902); test: IDO1 Enzymatic Assay (A); type: biochemical; details: recombinant HIS-tagged IDO1, 40 nM; read-out: IDO enzymatic IC50, nM (A)
Experimental: Compounds to be tested were serially diluted in ten 3-fold steps in DMSO starting from 10 mM DMSO stocks. Compound dilutions or DMSO alone were then dispensed from the dilution plate into a Greiner black 384-well assay plate (catalog #781086) using an Echo 555 acoustic liquid handler (Labcyte). HIS-tagged IDO1 protein (Genbank #: NM_002164) was recombinantly expressed in Escherichia coli using ZYP5052 auto induction media supplemented with 500 μM delta aminolevulinic acid for 48 h at 16° C. IDO1 protein was purified using Ni^2+-affinity resin and size exclusion chromatography. Purified protein was then diluted in assay buffer (50 mM Tris pH 7.0, 1% glycerol, 20 μM methylene blue, 0.05% Tween-20, 20 mM sodium ascorbate, 100 units/mL catalase) to obtain a final IDO1 concentration of 40 nM. […] were dispensed to wells of the assay plate using a BioRAPTR liquid dispenser (Beckman Coulter). Assay plates containing compound and IDO1 enzyme were incubated at RT for 30 min. Afterwards, 10 μL of 400 μM tryptophan in assay buffer were added to each well of the assay plate using a BioRAPTR liquid dispenser. […] The resulting fluoresence was measured in an Envision plate reader (Perkin Elmer) with a 400/25 nm excitation filter and an 510/20 nm emission filter. […] Potencies were calculated by linear least squares fit to the four parameter logistic IC50 equation.

TDO = biological target: T1, TDO (Homo sapiens, UniProt P48775); test: TDO Cellular Assay (C), SW48 cells; type: cell-based; details: 48 hours, second value of cell
T1 construct: endogenous in cells; host or cells: SW48 cells
Experimental: Compounds were serially diluted in DMSO and acoustically dispensed (LabCyte Echo) into each well of a black 384-well cell culture plate (Greiner). SW48 cells were diluted to a density of 2×10^5 cells/ml in complete RPMI culture medium supplemented with […] L-tryptophan and […] SW48 cells were dispensed to each well of 384-well plates with a compound. Plates are gently shaken and then incubated for 48 hours at 37° C. in an incubator with 5% CO2. After incubation, 12 μl of the detection agent (0.5 M isonipecotate in DMSO) was added to each well and incubated at 37° C. overnight. The fluorescent signal was read on a Spectramax plate reader with excitation at 400 nm and emission at 510 nm. The percent inhibition was determined by normalization to wells containing no compound relative to wells receiving no cells.

MELK = MELK (Homo sapiens, UniProt Q14680); test: Off-target kinase panel, ZLYTE: MELK; type: biochemical; details: read-out: Estimated IC50 (uM) MELK
From the text: (§1) The activity data was obtained in a panel of 265 and 264 for compounds 1-1 and CC-1, respectively, using the ZLYTE and ADAPTA assay methods indicated in the table below.
(§2) The ZLYTE biochemical assay employs a fluorescence-based, coupled-enzyme format and is based on the differential sensitivity of phosphorylated and non-phosphorylated peptides to proteolytic cleavage. The peptide substrate is labeled with two fluorophores—one at each end—that make up a Fluorescence Resonance Energy Transfer (FRET) pair.
(§3) In the primary reaction, the kinase transfers the gamma-phosphate of ATP to a single tyrosine, serine or threonine residue in a synthetic FRET-peptide. In the secondary reaction, a site-specific protease recognizes and cleaves non-phosphorylated FRET-peptides. Phosphorylation of FRET-peptides suppresses cleavage by the Development Reagent. […] A ratiometric method, which calculates the ratio (the Emission Ratio) of donor emission to acceptor emission after excitation of the donor fluorophore at 400 nm, is used to quantitate reaction progress, as shown in the equation below. […]
(§4) Both cleaved and uncleaved FRET-peptides contribute to the fluorescence signals and therefore to the Emission Ratio. The extent of phosphorylation of the FRET-peptide can be calculated from the Emission Ratio. […]
(§5) 10. Read on fluorescence plate reader and analyze the data.

CDK5/P35 = CDK5/P35 (Homo sapiens, UniProt Q00535); test: Off-target kinase panel, ZLYTE: CDK5/P35; type: biochemical; details: read-out: Estimated IC50 (uM) CDK5/P35
From the text: as §1, §2, §3, §4, §5

Chain of IDO1 (P14902 whole entry): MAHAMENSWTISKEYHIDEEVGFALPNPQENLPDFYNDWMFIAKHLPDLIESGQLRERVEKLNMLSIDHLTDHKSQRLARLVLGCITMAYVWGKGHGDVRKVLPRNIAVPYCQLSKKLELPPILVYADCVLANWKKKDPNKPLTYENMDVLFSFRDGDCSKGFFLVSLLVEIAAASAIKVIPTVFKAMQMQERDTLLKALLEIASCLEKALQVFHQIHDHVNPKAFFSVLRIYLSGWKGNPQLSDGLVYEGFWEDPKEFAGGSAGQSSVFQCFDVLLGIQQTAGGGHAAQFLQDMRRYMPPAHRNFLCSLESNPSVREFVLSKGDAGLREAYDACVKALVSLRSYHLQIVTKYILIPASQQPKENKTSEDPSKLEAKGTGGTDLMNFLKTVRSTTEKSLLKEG
Chain of MELK (Q14680 whole entry): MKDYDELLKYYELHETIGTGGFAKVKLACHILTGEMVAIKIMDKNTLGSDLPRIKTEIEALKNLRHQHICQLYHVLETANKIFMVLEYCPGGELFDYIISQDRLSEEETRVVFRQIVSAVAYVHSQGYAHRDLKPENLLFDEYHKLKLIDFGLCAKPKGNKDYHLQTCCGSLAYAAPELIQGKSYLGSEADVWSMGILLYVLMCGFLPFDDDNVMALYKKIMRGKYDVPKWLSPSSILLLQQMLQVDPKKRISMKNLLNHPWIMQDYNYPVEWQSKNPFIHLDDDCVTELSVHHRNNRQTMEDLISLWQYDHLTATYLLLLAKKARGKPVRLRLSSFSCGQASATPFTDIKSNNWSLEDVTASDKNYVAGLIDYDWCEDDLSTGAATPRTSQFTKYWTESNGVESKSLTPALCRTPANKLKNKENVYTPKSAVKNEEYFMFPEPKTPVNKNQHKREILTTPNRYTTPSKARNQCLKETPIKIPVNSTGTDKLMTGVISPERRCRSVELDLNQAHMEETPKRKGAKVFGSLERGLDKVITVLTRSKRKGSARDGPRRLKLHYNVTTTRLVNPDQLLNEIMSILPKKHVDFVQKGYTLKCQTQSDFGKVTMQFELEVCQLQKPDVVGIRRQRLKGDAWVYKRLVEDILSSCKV
T1 sequence (P48775 whole entry): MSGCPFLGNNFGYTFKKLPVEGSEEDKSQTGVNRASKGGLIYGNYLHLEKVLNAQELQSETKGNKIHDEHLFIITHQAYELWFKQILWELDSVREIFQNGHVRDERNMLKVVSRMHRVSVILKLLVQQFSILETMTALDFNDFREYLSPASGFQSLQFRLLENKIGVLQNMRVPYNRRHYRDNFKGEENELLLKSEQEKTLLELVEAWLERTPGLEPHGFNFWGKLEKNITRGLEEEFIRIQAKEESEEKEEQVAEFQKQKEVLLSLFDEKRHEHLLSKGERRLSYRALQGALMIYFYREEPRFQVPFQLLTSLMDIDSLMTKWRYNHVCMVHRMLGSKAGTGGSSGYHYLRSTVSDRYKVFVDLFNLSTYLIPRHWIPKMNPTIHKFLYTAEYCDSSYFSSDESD
Chain of CDK5/P35 (Q00535 whole entry): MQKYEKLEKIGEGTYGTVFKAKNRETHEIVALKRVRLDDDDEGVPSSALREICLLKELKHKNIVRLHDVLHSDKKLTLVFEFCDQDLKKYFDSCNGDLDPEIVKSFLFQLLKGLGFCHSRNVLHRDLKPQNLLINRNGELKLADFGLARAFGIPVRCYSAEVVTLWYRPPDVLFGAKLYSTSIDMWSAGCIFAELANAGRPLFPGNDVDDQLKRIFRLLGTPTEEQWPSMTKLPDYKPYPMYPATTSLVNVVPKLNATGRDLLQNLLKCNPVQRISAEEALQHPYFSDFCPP
Chain of CDK5/P35 (Q15078 2-307 partner limits assumed): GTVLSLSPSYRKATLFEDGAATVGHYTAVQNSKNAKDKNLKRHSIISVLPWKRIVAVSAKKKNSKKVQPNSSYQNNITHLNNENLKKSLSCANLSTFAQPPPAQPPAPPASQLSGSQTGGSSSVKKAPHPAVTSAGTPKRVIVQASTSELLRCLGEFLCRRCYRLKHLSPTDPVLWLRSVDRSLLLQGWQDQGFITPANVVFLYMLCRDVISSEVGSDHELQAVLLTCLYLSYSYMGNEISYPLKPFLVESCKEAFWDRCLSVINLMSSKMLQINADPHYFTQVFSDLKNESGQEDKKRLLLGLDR

| IC50 (IDO1) | IC50 (TDO) | IC50 (MELK) | IC50 (CDK5/P35) | SMILES |
| --- | --- | --- | --- | --- |
| 129 nM | 247 nM | > 2 µM | > 2 µM | C[C@@H]1CN(c2cc(Br)cc3[nH]ncc23)CC[C@]12NC(=O)NC2=O (single isomer, unassigned) [Compound 1-1] |
| 113 nM | 206 nM | 1.4 µM | 1.6 µM | O=C1NC(=O)C2(CCN(c3cc(Cl)cc4[nH]ncc34)CC2)N1 [CC-1] |
